Data taken from ChEMBL document CHEMBL4806965, “Nek6 kinase inhibitors useful for the treatment of solid tumors” (2019).
pIC50: −log10 of the molar value.

Key:
[1] = system: PEO1; experiment: Cytotoxicity against human PEO1 cells assessed as inhibition of cell growth after 72 hrs by ATPlite assay; format: functional, cell-based; conditions: PEO1, 72 h
[2] = system: PEO1; experiment: Synergistic cytotoxicity against human PEO1 cells assessed as combination index at 44 uM after 72 hrs in presence of 1 uM of cisplatin by ATPlite assay; format: functional
[3] = system: PEO1; experiment: Synergistic cytotoxicity against human PEO1 cells assessed as combination index at 44 uM after 72 hrs in presence of 10 uM of paclitaxel by ATPlite assay; format: functional
[4] = system: PEO1; experiment: Synergistic cytotoxicity against human PEO1 cells assessed as combination index at 44 uM after 72 hrs in presence of 10 uM of cisplatin by ATPlite assay; format: functional
[5] = system: PEO1; experiment: Synergistic cytotoxicity against human PEO1 cells assessed as combination index at 44 uM after 72 hrs in presence of 1000 uM of paclitaxel by ATPlite assay; format: functional
[6] = system: PEO1; experiment: Synergistic cytotoxicity against human PEO1 cells assessed as combination index at 44 uM after 72 hrs in presence of 100 uM of paclitaxel by ATPlite assay; format: functional
[7] = system: PEO1; experiment: Synergistic cytotoxicity against human PEO1 cells assessed as combination index at 44 uM after 72 hrs in presence of 10000 uM of paclitaxel by ATPlite assay; format: functional
[8] = system: PEO1; experiment: Synergistic cytotoxicity against human PEO1 cells assessed as combination index at 44 uM after 72 hrs in presence of 0.1 uM of cisplatin by ATPlite assay; format: functional
[9] = system: PEO1; experiment: Synergistic cytotoxicity against human PEO1 cells assessed as combination index at 44 uM after 72 hrs in presence of 2 uM of cisplatin by ATPlite assay; format: functional
[10] = system: PEO1; experiment: Synergistic cytotoxicity against human PEO1 cells assessed as combination index at 44 uM after 72 hrs in presence of 5 uM of cisplatin by ATPlite assay; format: functional
[11] = system: PEO1; experiment: Synergistic cytotoxicity against human PEO1 cells assessed as combination index at 44 uM after 72 hrs in presence of 1 uM of paclitaxel by ATPlite assay; format: functional

SMILES | pIC50 [1] | CI [2] | CI [3] | CI [4] | CI [5] | CI [6] | CI [7] | CI [8] | CI [9] | CI [10] | CI [11]
CC1=C(C#N)C(O)=NC(=O)/C1=C\c1ccc(-c2ccccc2)o1 | 4.36 | 1.08 | 1.05 | 0.69 | 29.58 | 4.68 | 287.79 | 0.81 | 1.01 | 1.03 | 0.87
CC(=O)O[C@H]1C(=O)[C@@]2(C)[C@H]([C@H](OC(=O)c3ccccc3)[C@]3(O)C[C@H](OC(=O)[C@H](O)[C@@H](NC(=O)c4ccccc4)c4ccccc4)C(C)=C1C3(C)C)[C@]1(OC(C)=O)CO[C@@H]1C[C@@H]2O [PACLITAXEL] | 5.15 | – | – | – | – | – | – | – | – | – | –
